Results taken from patent publication US20210405025A1, “IDENTIFYING COMPOUNDS FOR TREATING CANCER AND USE THEREOF” (THE UAB RESEARCH FOUNDATION, priority 2018, published 2021).
Counter-ions that a name gives are not always drawn. Like-named read-outs stand apart in the source and are kept apart here.

Tested on: relapsed AML cells
Experiment: Drug sensitivity assay, 1,536-well, 3-day culture with individual approved drugs at 10 μM, viability by alamarBlue
Type: cell-based, human
Outline: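 Three-day exposure of primary AML cells to individual drugs in 1,536-well format, viability read as percent live cells. Cells were thawed, cultured overnight, sorted by FACS for viable blasts and plated at 4,000-4,500 cells/5 μL in cytokine-supplemented IMDM/BIT medium.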

[1] = number of relapsed AML cases out of 18 tested with >70% cell death, 10 μM, 3-day culture

| Compound | #Cases >70% cell death [1] | #Cases >70% cell death |
| --- | --- | --- |
| COc1ccc(F)c(F)c1C(=O)c1cnc(NC2CCN(S(C)(=O)=O)CC2)nc1N [R-547] | 18 | – |
| COc1ccc2c(c1)[nH]c1c(C)nccc12 [HARMINE] | 3 | – |
| Cc1cc(CC(C)CC(C)(C)C)n(O)c(=O)c1.NCCO (centres unmarked) [PIROCTONE OLAMINE] | 13 | – |
| O=C(c1ccc(/C=C/c2n[nH]c3ccccc23)cc1)N1CCNCC1 [KW-2449] | 9 | – |
| CC(=O)OC[C@H]1O[C@@H]([S-])[C@H](OC(C)=O)[C@@H](OC(C)=O)[C@@H]1OC(C)=O.CCP(CC)CC.[Au+] [AURANOFIN] | 17 | – |
| c1ccc2c(CCNc3ccc(Nc4ccncc4)cc3)c[nH]c2c1 | 12 | – |
| CCCOc1cc(N)ccc1C(=O)OCCN(CC)CC [PROPOXYCAINE HYDROCHLORIDE] | 1 | – |
| CCN(CC)CCN1C(=O)c2c(c3c4cccc(Cl)c4n([C@@H]4O[C@H](CO)[C@@H](OC)[C@H](O)[C@H]4O)c3c3[nH]c4c(Cl)cccc4c23)C1=O [BECATECARIN] | 18 | – |
| Clc1ccc2c(c1)CCc1cccnc1C2=C1CCNCC1 [DESLORATADINE] | 1 | – |
| CCC(=O)O[C@]1(C(=O)CCl)[C@@H](C)C[C@H]2[C@@H]3C[C@H](F)C4=CC(=O)C=C[C@]4(C)[C@@]3(F)[C@@H](O)C[C@@]21C [HALOBETASOL PROPIONATE] | 3 | – |
| N#C[C@@H]1CCCN1C(=O)CNC12CC3CC(CC(O)(C3)C1)C2 [VILDAGLIPTIN] | 1 | – |
| CC(=O)[C@H]1CC[C@H]2[C@@H]3C=CC4=CC(=O)CC[C@@]4(C)[C@@H]3CC[C@]12C [DYDROGESTERONE] | 1 | – |
| CC[C@]1(O)C[C@@H]2CN(CCc3c([nH]c4ccccc34)[C@@](C(=O)OC)(c3cc4c(cc3OC)N(C)[C@H]3[C@@](O)(C(=O)OC)[C@H](OC(C)=O)[C@]5(CC)C=CCN6CC[C@]43[C@@H]65)C2)C1 [VINBLASTINE] | 14 | – |
| CC[n+]1c(-c2ccccc2)c2cc(N)ccc2c2ccc(N)cc21 [HOMIDIUM BROMIDE] | 1 | – |
| CCCCCN(C)CCC(O)(P(=O)(O)O)P(=O)(O)O [IBANDRONATE] | 1 | – |
| ZINC PYRITHIONE | – | 9 |
| CC[C@@H](C(=O)O)[C@@H]1O[C@@H]([C@@H](C)[C@H](O)[C@H](C)C(=O)[C@H](CC)[C@H]2O[C@]3(C=C[C@@H](O)[C@]4(CC[C@@](C)([C@H]5CC[C@](O)(CC)[C@H](C)O5)O4)O3)[C@H](C)C[C@@H]2C)[C@@H](C)C[C@@H]1C [NARASIN] | 8 | – |
| CC(=O)OCC(=O)[C@@]12OC3(CCCC3)O[C@@H]1C[C@H]1[C@@H]3CCC4=CC(=O)C=C[C@]4(C)[C@@]3(F)[C@@H](O)C[C@@]12C [AMCINONIDE] | 1 | – |
| Cc1ccc(C(=O)N(CCCN)[C@@H](c2nc3cc(Cl)ccc3c(=O)n2Cc2ccccc2)C(C)C)cc1 [ISPINESIB MESYLATE] | 2 | – |
| CC[C@H]1CN2CCc3cc(OC)c(OC)cc3[C@@H]2C[C@@H]1C[C@H]1NCCc2cc(OC)c(OC)cc21 [EMETINE] | 18 | – |
| CNC(=O)c1cc(Oc2ccc(NC(=O)Nc3ccc(Cl)c(C(F)(F)F)c3)cc2)ccn1 [SORAFENIB] | 9 | – |
| CCOC(=O)C1=C[C@]2(CC)CCCN3CCc4c(n1c1ccccc41)[C@@H]32 [VINPOCETINE] | 1 | – |
| CCN[C@H]1C[C@H](C)S(=O)(=O)c2sc(S(N)(=O)=O)cc21 [DORZOLAMIDE] | 4 | – |
| CCCNCC(O)COc1ccccc1C(=O)CCc1ccccc1 (centres unmarked) [PROPAFENONE] | 1 | – |

| Compound | #Cases >70% cell death [1] | #Cases >70% cell death |
| --- | --- | --- |
| Cc1nc(Nc2ncc(C(=O)Nc3c(C)cccc3Cl)s2)cc(N2CCN(CCO)CC2)n1 [DASATINIB] | 6 | – |
| Oc1c(I)cc(Cl)c2cccnc12 [CLIOQUINOL] | 6 | – |
| Nc1ccn([C@@H]2O[C@H](CO)[C@@H](O)[C@@H]2O)c(=O)n1 [CYTARABINE] | 16 | – |
| COCCCC/C(=N\OCCN)c1ccc(C(F)(F)F)cc1 [FLUVOXAMINE MALEATE] | 1 | – |
| CN1CCc2cccc3c2[C@H]1Cc1ccc(O)c(O)c1-3 [APOMORPHINE] | 5 | – |
| c1ccc(-c2ccc(C(c3ccccc3)n3ccnc3)cc2)cc1 (centres unmarked) [BIFONAZOLE] | 1 | – |
| CCCCN(CCCC)CCCOC(=O)c1ccc(N)cc1 [BUTACAINE] | 1 | – |
| CC(NCCC(c1ccccc1)c1ccccc1)c1ccccc1 (centres unmarked) [FENDILINE HYDROCHLORIDE] | 1 | – |
| COc1cc(/C=C/C(=O)CC(=O)/C=C/c2ccc(O)c(OC)c2)ccc1O [CURCUMIN] | 1 | – |
| CC[C@@]1(O)C(=O)OCc2c1cc1n(c2=O)Cc2cc3ccccc3nc2-1 [CAMPTOTHECIN] | 12 | – |
| CO[C@H]1C[C@H](O[C@@H]2/C(C)=C/C[C@@H]3C[C@@H](C[C@]4(CC[C@H](C)[C@@H](C5CCCCC5)O4)O3)OC(=O)[C@@H]3C=C(C)/C(=N/O)[C@H]4OC/C(=C\C=C\[C@@H]2C)[C@]43O)O[C@@H](C)[C@@H]1O [SELAMECTIN] | 18 | – |
| N=C(N)NC(=O)Cc1c(Cl)cccc1Cl [GUANFACINE HCL] | 1 | – |
| CC(=O)[C@@]1(O)CC[C@H]2[C@@H]3C[C@H](C)C4=CC(=O)C=C[C@]4(C)[C@@]3(F)[C@@H](O)C[C@@]21C [FLUOROMETHOLONE] | 2 | – |
| CN(C[C@@H]1COCCO1)S(=O)(=O)Nc1ccc2ccc3ncc(-c4cnn(C)c4)cc3c(=O)c2c1 [MK-2461] | 2 | – |
| CC(=O)O[C@H]1C(=O)[C@@]2(C)[C@H]([C@H](OC(=O)c3ccccc3)[C@]3(O)C[C@H](OC(=O)[C@H](O)[C@@H](NC(=O)c4ccccc4)c4ccccc4)C(C)=C1C3(C)C)[C@]1(OC(C)=O)CO[C@@H]1C[C@@H]2O [PACLITAXEL] | 5 | – |
| C[C@@H]1CCN(C(=O)CC#N)C[C@@H]1N(C)c1ncnc2[nH]ccc12 [TOFACETINIB] | 4 | – |
| CC(C)(C)c1[nH]cnc1/C=c1\[nH]c(=O)/c(=C/c2ccccc2)[nH]c1=O [PLINABULIN] | 12 | – |
| C=C1C[C@H]2[C@@H]3C=C(C)C4=CC(=O)CC[C@]4(C)[C@H]3CC[C@]2(C)[C@@]1(OC(C)=O)C(C)=O [MELENGESTROL ACETATE] | 2 | – |
| Clc1ccc(Cn2c(CN3CCCC3)nc3ccccc32)cc1 [CLEMIZOLE HYDROCHLORIDE] | 1 | – |
| COc1cc(C(=O)NCc2ccc(OCCN(C)C)cc2)cc(OC)c1OC [TRIMETHOBENZAMIDE HYDROCHLORIDE] | 1 | – |
| CNC(=O)c1cc(Oc2ccc(NC(=O)Nc3ccc(Cl)c(C(F)(F)F)c3)c(F)c2)ccn1 [REGORAFENIB] | 9 | – |
| OCCN1CCN(CCCN2c3ccccc3Sc3ccc(Cl)cc32)CC1 [PERPHENAZINE] | 2 | – |
| Cc1ccc2c(Br)cc(Br)c(OC(=O)c3ccccc3)c2n1 [BROXALDINE] | 2 | – |
| C[C@@H]1O[C@@H](O[C@H]2C[C@@H](O)[C@]3(CO)[C@H]4[C@H](O)C[C@]5(C)[C@@H](C6=CC(=O)OC6)CC[C@]5(O)[C@@H]4CC[C@]3(O)C2)[C@H](O)[C@H](O)[C@H]1O [OUABAIN] | 18 | – |

| Compound | #Cases >70% cell death [1] | #Cases >70% cell death |
| --- | --- | --- |
| Cc1ncc2c(c1O)COC2c1ccc(Cl)cc1 (centres unmarked) [CICLETANINE] | 4 | – |
| O=C(c1ccc(OCCN2CCCCC2)cc1)c1c(-c2ccc(O)cc2)sc2cc(O)ccc12 [RALOXIFENE] | 3 | – |
| Cn1c(C#N)ccc1-c1ccc2c(c1)C(C)(C)OC(=S)N2 [TANAPROGET] | 5 | – |
| CCOc1ccc2nc(S(N)(=O)=O)sc2c1 [ETHOXZOLAMIDE] | 2 | – |
| C=CCNC1=C2C[C@@H](C)C[C@H](OC)[C@H](O)[C@@H](C)/C=C(\C)[C@H](OC(N)=O)[C@@H](OC)/C=C\C=C(/C)C(=O)NC(=CC1=O)C2=O [TANESPIMYCIN (17-AAG), TANESPIMYCIN] | 18 | – |
| COc1c(C)c2c(c(O)c1C/C=C(\C)CCC(=O)O)C(=O)OC2 [MYCOPHENOLIC ACID] | 5 | – |
| AMONAFIDE MALATE | 8 | – |
| C=CC(N)CCC(=O)O (centres unmarked) [VIGABATRIN] | 13 | – |
| S=c1nc[nH]c2nc[nH]c12 [MERCAPTOPURINE] | 10 | – |
| CC(C)(C)c1nc(-c2cccc(NS(=O)(=O)c3c(F)cccc3F)c2F)c(-c2ccnc(N)n2)s1 [DABRAFENIB] | 4 | – |
| O=C1Cc2cc(CCN3CCN(c4nsc5ccccc45)CC3)c(Cl)cc2N1 [ZIPRASIDONE] | 3 | – |
| CCCOc1ccc2nc(NC(=O)OC)[nH]c2c1 [OXIBENDAZOLE] | 5 | – |
| CC(=O)OCC(=O)[C@@]12N=C(C)O[C@@H]1C[C@H]1[C@@H]3CCC4=CC(=O)C=C[C@]4(C)[C@H]3[C@@H](O)C[C@@]12C [DEFLAZACORT] | 8 | – |
| COc1cc(NS(C)(=O)=O)ccc1Nc1c2ccccc2nc2ccccc12 [AMSACRINE] | 4 | – |
| CC(C)C[C@H](NC(=O)CNC(=O)c1cc(Cl)ccc1Cl)B1OC(=O)C(CC(=O)O)(CC(=O)O)O1 [MLN9708] | 1 | – |
| CC(C)CC(=O)Nc1n[nH]c2c1CN(C(=O)C1CCN(C)CC1)C2(C)C [PHA-793887] | 16 | – |
| Cc1cc2nc3ccc(N(C)C)cc3[s+]c2cc1N [TOLONIUM CHLORIDE] | 11 | – |
| CC1=C(C)C(=O)C(C(CCCCCC(=O)O)c2ccccc2)=C(C)C1=O (centres unmarked) [SERATRODAST] | 1 | – |
| CCC(COC(=O)c1cc(OC)c(OC)c(OC)c1)(c1ccccc1)N(C)C (centres unmarked) [TRIMEBUTINE] | 1 | – |
| COc1cccc2c1C(=O)c1c(O)c3c(c(O)c1C2=O)C[C@@](O)(C(C)=O)C[C@@H]3O[C@H]1C[C@H](N)[C@H](O)[C@H](C)O1 [DAUNORUBICIN] | 18 | – |
| CN1CCOC(c2ccccc2)c2ccccc2C1 (centres unmarked) [NEFOPAM] | 2 | – |
| CN(C)C[C@@H]1CCn2cc(c3ccccc32)C2=C(C(=O)NC2=O)c2cn(c3ccccc23)CCO1 [LY333531] | 12 | – |
| C[n+]1cc2c3c(ccc2c2ccc4cc5c(cc4c21)OCO5)OCO3 [SANGUINARIUM CHLORIDE] | 18 | – |
